Patent US12371428B2 (Exelixis, Inc., priority 2019, dated 2025)
Where a name gives a salt, the structure may show the parent alone.

Experiments:
[1] = target: Human MER (residues 528-999) (Homo sapiens (Human), UniProt Q12866); assay: Human Mer kinase assay, HTRF KinEase (Example C-2); type: biochemical
Method in brief: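 IC50 values from 10 concentrations via 4-parameter logistic fit of […], with DMSO as 100% and 1 μM reference compound as 0% activity. Reaction: MER kinase domain 528-999, 1 ng/well, 40 μM ATP (Km), biotin peptide, 5 mM MgCl2, 1 mM DTT, 3% DMSO, room temperature 60 min; HTRF streptavidin-XL665/Eu-antibody detection.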

[2] = target: KDR (phospho-KDR, VEGF165-stimulated HUVEC cells) (Homo sapiens (Human), UniProt P35968); assay: KDR autophosphorylation ELISA in HUVEC cells (Example G); type: cell-based; settings: cellular activity; KDR autophosphorylation ELISA in HUVEC cells
Chain of KDR (phospho-KDR, VEGF165-stimulated HUVEC cells) (P35968 20-1356): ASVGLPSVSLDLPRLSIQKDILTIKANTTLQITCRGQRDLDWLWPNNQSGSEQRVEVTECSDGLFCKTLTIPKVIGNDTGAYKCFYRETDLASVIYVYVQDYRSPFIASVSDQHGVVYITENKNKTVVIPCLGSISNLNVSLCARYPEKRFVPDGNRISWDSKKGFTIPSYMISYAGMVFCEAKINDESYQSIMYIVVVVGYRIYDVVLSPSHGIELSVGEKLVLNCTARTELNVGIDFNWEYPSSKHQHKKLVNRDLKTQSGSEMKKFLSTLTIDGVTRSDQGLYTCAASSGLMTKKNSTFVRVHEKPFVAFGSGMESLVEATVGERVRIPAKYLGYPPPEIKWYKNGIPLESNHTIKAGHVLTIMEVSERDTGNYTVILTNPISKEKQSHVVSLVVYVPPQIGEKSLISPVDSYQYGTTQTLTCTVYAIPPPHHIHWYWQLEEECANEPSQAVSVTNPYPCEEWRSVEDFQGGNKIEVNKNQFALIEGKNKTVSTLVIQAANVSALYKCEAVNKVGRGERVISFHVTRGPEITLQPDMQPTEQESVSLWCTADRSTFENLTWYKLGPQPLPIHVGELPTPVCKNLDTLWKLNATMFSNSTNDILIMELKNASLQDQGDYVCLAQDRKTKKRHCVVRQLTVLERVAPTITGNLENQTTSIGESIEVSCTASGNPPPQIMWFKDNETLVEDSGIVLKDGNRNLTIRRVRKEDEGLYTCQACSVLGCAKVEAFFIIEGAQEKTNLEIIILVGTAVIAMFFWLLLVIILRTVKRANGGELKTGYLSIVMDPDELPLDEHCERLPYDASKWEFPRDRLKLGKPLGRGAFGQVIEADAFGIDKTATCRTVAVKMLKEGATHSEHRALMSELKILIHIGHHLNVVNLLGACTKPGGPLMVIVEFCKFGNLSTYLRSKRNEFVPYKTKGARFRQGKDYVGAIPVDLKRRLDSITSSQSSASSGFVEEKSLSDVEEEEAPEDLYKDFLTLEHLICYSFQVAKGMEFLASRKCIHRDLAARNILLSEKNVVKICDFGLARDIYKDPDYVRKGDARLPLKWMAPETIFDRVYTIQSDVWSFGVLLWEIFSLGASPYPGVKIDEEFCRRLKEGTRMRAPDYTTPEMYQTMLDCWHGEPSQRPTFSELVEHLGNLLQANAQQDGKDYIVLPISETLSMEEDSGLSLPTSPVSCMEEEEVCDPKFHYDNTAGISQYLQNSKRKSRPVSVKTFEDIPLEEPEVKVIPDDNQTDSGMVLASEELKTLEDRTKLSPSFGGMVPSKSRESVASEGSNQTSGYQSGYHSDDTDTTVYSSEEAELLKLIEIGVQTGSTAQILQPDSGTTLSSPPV
Method in brief: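 Read-out is phospho-KDR measured by ELISA in lysates of VEGF165-stimulated (100 ng/mL, 5 min) HUVEC that were serum-starved 24 h and then pre-exposed 1 h to compound across 8 doses in 0.3% DMSO. Unstimulated lysates defined 0% and stimulated vehicle lysates 100% activity; IC50 values come from 4-parameter logistic regression.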

[3] = protocol of Example C-2 (other compounds)

Chain of Human MER (residues 528-999) (Q12866 528-999): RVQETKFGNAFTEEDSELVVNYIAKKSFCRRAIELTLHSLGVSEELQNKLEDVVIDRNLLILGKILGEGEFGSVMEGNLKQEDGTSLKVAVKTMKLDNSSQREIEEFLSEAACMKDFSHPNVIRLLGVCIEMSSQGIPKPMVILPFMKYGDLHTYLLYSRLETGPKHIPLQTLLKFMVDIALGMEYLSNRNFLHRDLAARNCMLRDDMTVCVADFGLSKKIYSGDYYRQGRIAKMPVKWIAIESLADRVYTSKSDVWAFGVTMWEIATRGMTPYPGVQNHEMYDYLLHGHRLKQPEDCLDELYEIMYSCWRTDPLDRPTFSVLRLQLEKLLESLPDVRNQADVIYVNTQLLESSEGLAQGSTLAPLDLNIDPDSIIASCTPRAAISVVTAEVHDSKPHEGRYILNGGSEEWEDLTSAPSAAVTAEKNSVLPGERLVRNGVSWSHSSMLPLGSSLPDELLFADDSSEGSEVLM

SMILES | IC50 [1, 3] | IC50 [2] | IC50 ([1]; protocol of Example C-2)
COc1cnc2c(Oc3ccc(NC(=O)c4cn(C(C)C)c(C)c(-c5ccc(F)cc5)c4=O)cc3)ccnc2c1 [Compound 148, 5-(4-Fluorophenyl)-N-[4-[(7-methoxy-1,5-naphthyridin-4-yl)oxy]phenyl]-6-methyl-4-oxo-1-propan-2-ylpyridine-3-carboxamide] | < 100 nM | > 300 nM | –
COc1cnc2c(Oc3ccc(NC(=O)c4cnc(C)c(-c5ccc(F)cc5C)c4O)cc3F)ccnc2c1 [Compound 175, N-[3-Fluoro-4-[(7-methoxy-1,5-naphthyridin-4-yl)oxy]phenyl]-5-(4-fluoro-2-methylphenyl)-4-hydroxy-6-methylpyridine-3-carboxamide] | < 100 nM | < 100 nM | –
COc1cc2nccc(Oc3ccc(NC(=O)c4cn(-c5cnn(C)c5)c(C)c(-c5ccc(F)cc5)c4=O)cc3F)c2nc1OC [Compound 140, N-[4-[(6,7-Dimethoxy-1,5-naphthyridin-4-yl)oxy]-3-fluorophenyl]-5-(4-fluorophenyl)-6-methyl-1-(1-methylpyrazol-4-yl)-4-oxopyridine-3-carboxamide] | < 100 nM | > 300 nM | –
CCn1cc(C(=O)Nc2ccc(Oc3ccnc4cc(OC)cnc34)cc2)c(=O)c(-c2ccc(F)cc2)c1C [Compound 163, 1-Ethyl-5-(4-fluorophenyl)-N-[4-[(7-methoxy-1,5-naphthyridin-4-yl)oxy]phenyl]-6-methyl-4-oxopyridine-3-carboxamide] | < 100 nM | > 300 nM | –
COc1cnc2c(Oc3ccc(NC(=O)c4cncc(-c5ccc(F)cc5)c4O)cc3)ccnc2c1 [Compound 146, 5-(4-Fluorophenyl)-4-hydroxy-N-[4-[(7-methoxy-1,5-naphthyridin-4-yl)oxy]phenyl]pyridine-3-carboxamide] | < 100 nM | < 100 nM | –
COc1cnc2c(Oc3ccc(NC(=O)c4cn(OC)cc(-c5ccc(F)cc5)c4=O)cc3F)ccnc2c1 [Compound 128, N-[3-Fluoro-4-[(7-methoxy-1,5-naphthyridin-4-yl)oxy]phenyl]-5-(4-fluorophenyl)-1-methoxy-4-oxopyridine-3-carboxamide] | < 100 nM | < 100 nM | –
CNc1c(-c2ccc(F)cc2)c(=O)c(C(=O)Nc2ccc(Oc3ccnc4cc(OC)cnc34)c(F)c2)cn1C [Compound 585, N-[3-Fluoro-4-[(7-methoxy-1,5-naphthyridin-4-yl)oxy]phenyl]-5-(4-fluorophenyl)-1-methyl-6-(methylamino)-4-oxopyridine-3-carboxamide] | – | > 300 nM | < 100 nM
CCc1nc2c(Oc3ccc(NC(=O)c4cnc(C)c(-c5ccc(F)cc5)c4O)cc3F)ccnc2cc1OC [Compound 589, N-[4-[(6-Ethyl-7-methoxy-1,5-naphthyridin-4-yl)oxy]-3-fluorophenyl]-5-(4-fluorophenyl)-4-hydroxy-6-methylpyridine-3-carboxamide] | – | < 100 nM | < 100 nM
Cc1ncc(C(=O)Nc2ccc(Oc3ccnc4cnccc34)cc2)c(O)c1-c1ccc(F)cc1 [Compound 643, 5-(4-fluorophenyl)-4-hydroxy-6-methyl-N-[4-(1,7-naphthyridin-4-yloxy)phenyl]pyridine-3-carboxamide] | – | < 100 nM | < 100 nM
COC(=O)c1cnc2c(Oc3ccc(NC(=O)c4cnc(C)c(-c5ccc(F)cc5)c4O)cc3F)ccnc2c1 [Compound 138, Methyl 8-[2-fluoro-4-[[5-(4-fluorophenyl)-4-hydroxy-6-methylpyridine-3-carbonyl]amino]phenoxy]-1,5-naphthyridine-3-carboxylate] | 100 to 300 nM | 100 to 300 nM | –
COc1cc2nccc(Oc3ccc(NC(=O)c4cnc(C)c(-c5ccc(F)cc5)c4O)cc3)c2cc1OC [Compound 171, N-[4-(6,7-Dimethoxyquinolin-4-yl)oxyphenyl]-5-(4-fluorophenyl)-4-hydroxy-6-methylpyridine-3-carboxamide] | < 100 nM | < 100 nM | –
COc1cnc2c(Oc3ccc(NC(=O)c4cn(C)c(OC)c(-c5ccc(F)cc5)c4=O)cc3F)ccnc2c1 [Compound 587, N-[3-Fluoro-4-[(7-methoxy-1,5-naphthyridin-4-yl)oxy]phenyl]-5-(4-fluorophenyl)-6-methoxy-1-methyl-4-oxopyridine-3-carboxamide] | – | > 300 nM | < 100 nM
COc1cc2nccc(Oc3ccc(NC(=O)c4cn(C(C)C)c(C)c(-c5ccc(F)cc5)c4=O)cc3F)c2nc1NS(C)(=O)=O [Compound 581, N-[3-Fluoro-4-[[6-(methanesulfonamido)-7-methoxy-1,5-naphthyridin-4-yl]oxy]phenyl]-5-(4-fluorophenyl)-6-methyl-4-oxo-1-propan-2-ylpyridine-3-carboxamide] | – | > 300 nM | < 100 nM
COc1nc2c(Oc3ccc(NC(=O)c4cn(C(C)C)c(C)c(-c5ccc(F)cc5)c4=O)cc3F)ccnc2cc1Br [Compound 132, N-[4-[(7-Bromo-6-methoxy-1,5-naphthyridin-4-yl)oxy]-3-fluorophenyl]-5-(4-fluorophenyl)-6-methyl-4-oxo-1-propan-2-ylpyridine-3-carboxamide] | < 100 nM | 100 to 300 nM | –
Cc1nc2c(Oc3ccc(NC(=O)c4cn(C(C)C)c(C)c(-c5ccc(F)cc5)c4=O)cc3F)ccnc2cc1-c1cccnc1 [Compound 620, N-[3-Fluoro-4-[(6-methyl-7-pyridin-3-yl-1,5-naphthyridin-4-yl)oxy]phenyl]-5-(4-fluorophenyl)-6-methyl-4-oxo-1-propan-2-ylpyridine-3-carboxamide] | – | > 300 nM | < 100 nM
Cc1ncc(C(=O)Nc2ccc(Oc3ccnc4cc(-c5cnn(C(F)F)c5)cnc34)cc2)c(O)c1-c1ccc(F)cc1 [Compound 611, N-[4-[[7-[1-(Difluoromethyl)pyrazol-4-yl]-1,5-naphthyridin-4-yl]oxy]phenyl]-5-(4-fluorophenyl)-4-hydroxy-6-methylpyridine-3-carboxamide] | – | < 100 nM | < 100 nM
COc1cc2nccc(Oc3ccc(NC(=O)c4cnc(C)c(-c5ccc(F)cc5)c4O)cc3)c2nc1OC [Compound 119, N-[4-[(6,7-Dimethoxy-1,5-naphthyridin-4-yl)oxy]phenyl]-5-(4-fluorophenyl)-4-hydroxy-6-methylpyridine-3-carboxamide] | < 100 nM | < 100 nM | –
CCc1nc2c(Oc3ccc(NC(=O)c4cn(C(C)C)c(C)c(-c5ccc(F)cc5)c4=O)cc3F)ccnc2cc1OC [Compound 588, N-[4-[(6-Ethyl-7-methoxy-1,5-naphthyridin-4-yl)oxy]-3-fluorophenyl]-5-(4-fluorophenyl)-6-methyl-4-oxo-1-propan-2-ylpyridine-3-carboxamide] | – | > 300 nM | < 100 nM
COc1cnc2c(Oc3ccc(NC(=O)c4cn(C)c(C#N)c(-c5ccc(F)cc5)c4=O)cc3F)ccnc2c1 [Compound 586, 6-Cyano-N-[3-fluoro-4-[(7-methoxy-1,5-naphthyridin-4-yl)oxy]phenyl]-5-(4-fluorophenyl)-1-methyl-4-oxopyridine-3-carboxamide] | – | > 300 nM | < 100 nM
COc1cc2ncnc(Oc3ccc(NC(=O)c4cn(-c5cnn(C)c5)cc(-c5ccc(F)cc5)c4=O)cc3F)c2nc1OC [Compound 637, N-[4-(6,7-dimethoxyprido[3,2-d]pyrimidin-4-yl)oxy-3-fluorophenyl]-5-(4-fluorophenyl)-1-(1-methylpyrazol-4-yl)-4-oxopyridine-3-carboxamide] | – | > 300 nM | < 100 nM
COc1cc2c(Oc3ccc(NC(=O)c4cnc(C)c(-c5ccc(F)cc5)c4O)cc3)ccnc2cn1 [Compound 644, 5-(4-fluorophenyl)-4-hydroxy-N-[4-[(6-methoxy-1,7-naphthyridin-4-yl)oxy]phenyl]-6-methylpyridine-3-carboxamide] | – | < 100 nM | < 100 nM
Cc1ncc(C(=O)Nc2ccc(Oc3ccnc4cc(-c5cnn(C(F)F)c5)cnc34)c(F)c2)c(O)c1-c1ccc(F)cc1 [Compound 610, N-[4-[[7-[1-(Difluoromethyl)pyrazol-4-yl]-1,5-naphthyridin-4-yl]oxy]-3-fluorophenyl]-5-(4-fluorophenyl)-4-hydroxy-6-methylpyridine-3-carboxamide hydrochloride] | – | < 100 nM | < 100 nM
CCn1cc(C(=O)Nc2ccc(Oc3ccnc4cc(OC)cnc34)cc2)c(=O)c(-c2ccc(F)cc2)c1 [Compound 169, 1-Ethyl-5-(4-fluorophenyl)-N-[4-[(7-methoxy-1,5-naphthyridin-4-yl)oxy]phenyl]-4-oxopyridine-3-carboxamide] | < 100 nM | > 300 nM | –
COc1cc2nccc(Oc3ccc(NC(=O)c4cn(OC)cc(-c5ccc(F)cc5)c4=O)cc3)c2nc1OC [Compound 127, N-[4-[(6,7-Dimethoxy-1,5-naphthyridin-4-yl)oxy]phenyl]-5-(4-fluorophenyl)-1-methoxy-4-oxopyridine-3-carboxamide] | < 100 nM | < 100 nM | –
CCn1cc(C(=O)Nc2ccc(Oc3ccnc4cc(OC)c(OC)nc34)cc2)c(=O)c(-c2ccc(F)cc2)c1C [Compound 168, N-[4-[(6,7-Dimethoxy-1,5-naphthyridin-4-yl)oxy]phenyl]-1-ethyl-5-(4-fluorophenyl)-6-methyl-4-oxopyridine-3-carboxamide] | < 100 nM | 100 to 300 nM | –
CCn1nc(C(=O)Nc2ccc(Oc3ccnc4cc(OC)c(OC)nc34)c(F)c2)c(=O)c(-c2ccc(F)cc2)c1C [Compound 568, N-[4-[(6,7-Dimethoxy-1,5-naphthyridin-4-yl)oxy]-3-fluorophenyl]-1-ethyl-5-(4-fluorophenyl)-6-methyl-4-oxopyridazine-3-carboxamide] | – | < 100 nM | < 100 nM
